In patent publication US20240335420A1, “N-ACYLHYDRAZONE COMPOUNDS CAPABLE OF INHIBITING NAV 1.7 AND/OR NAV 1.8, PROCESSES FOR THE PREPARATION THEREOF, COMPOSITIONS, USES, METHODS FOR TREATMENT USING SAME AND KITS” (EUROFARMA LABORATÓRIOS S.A., priority 2021, published 2024):

Columns and labels:
Assay type in all cases: cell-based
[1] = biological target: T1, human sodium channels Nav 1.8 (Homo sapiens (Human), UniProt Q9Y5Y9); assay: Automated whole-cell voltage-clamp (ScreenPatch 384P), Nav 1.8 sodium current, Protocol 2; conditions: Protocol 2 (holding −100 mV, inactivation step −40 mV 8 s, 0.05 Hz); CHO cells expressing human Nav 1.8; read-out: Nav1.8 IC50
Protocol: (§1) Biological assays were performed on Chinese hamster ovary (CHO) cells expressing the human sodium channels Nav 1.8 and Nav 1.7 stably.
(§2) The experimental voltage-clamp protocol using the whole cell configuration was established on the automated ScreenPatch® 384P platform (SP384PE, Nanion Technologies, Livingston, NJ) and recording of the results was performed with a Nanion 384-well Patch Clamp chip (NPC) (Nanion Technologies, Livingston, NJ).
(§3) Compounds of Formula (I), were diluted in eight concentrations in the extracellular solution composed of physiological saline, buffered with HEPES (mM): NaCl, 137; KCl, 4; CaCl2, 3.8; MgCl2, 1; HEPES, 10; Glucose, 10; pH 7.4. The […], 50; CsF, 90; MgCl2, 5; EGTA, 5; HEPES, 10; pH 7.2. The duration of exposure of each compound with the cells expressing Nav 1.7 or Nav 1.8 was at least five minutes and the assays were performed at room temperature.
(§4) The measurements of the sodium currents of Nav 1.8 and Nav 1.7 were obtained using the voltage protocols described below: • Protocol 1: A holding voltage of −90 mV was established followed by a voltage phase of 200 ms to −120 mV, followed by a voltage step of 10 mV for 1 second for Nav 1.8 or 0 mV for Nav 1.7, followed by a step of −100 mV for 20 ms, followed by a step of 20 ms for 10 mV for Nav 1.8 or 0 mV for Nav 1.7 (TP1A) before returning to the holding voltage of −90 mV. • Protocol 2: A holding voltage of −100 mV was established followed by an inactivation voltage step at −40 mV for 8 seconds, followed by a −100 mV step for […], followed by a 20 ms step for 10 mV for Nav 1.8 or 0 mV for Nav 1.7 (TP1A) before returning to the holding voltage of −100 mV.
(§5) Protocols were repeated at a frequency of 0.1 Hz (Protocol 1) or 0.05 Hz (Protocol 2) and current amplitude was quantified over the TP1A phase log. The variation in the peak amplitude of the current was evaluated according to the Formula described below, after exposure of the cells expressing the channels, at each concentration of the different compounds:
(§6) [formula] • where |TP1A, basal, and |TP1A, molecule represent the entry peaks of sodium currents into TP1A prior to exposure to the compound and in the presence of the compound, respectively.
(§7) The decrease in peak current amplitude, after exposure of the cells to the compounds, was used to calculate the percent relative blocking of the channels relative to the positive control according to the Formula below:
(§8) [formula] • where % V and % CP represent the averages of the values of current inhibition with a vehicle (DMSO) and positive controls, respectively. The sodium currents of the positive control were considered as 100%.
(§9) [formula] • where [Test] represents the concentration of the evaluated molecule, IC50 is the concentration of the compound that generates half of the maximum inhibition, N is the Hill's coefficient and % Block′ is the percentage of the sodium channel current (Nav 1.8 and Nav 1.7) inhibited at each concentration of the evaluated molecule. Data were obtained by non-linear least squares regression with XLfit for Excel (Microsoft, Redmond, WA).
(§10) Compounds were tested in at least one assay to obtain the IC50 value.

[2] = biological target: T2, human sodium channels Nav 1.7 (Homo sapiens (Human), UniProt Q15858); assay: Automated whole-cell voltage-clamp (ScreenPatch 384P), Nav 1.7 sodium current, Protocol 2; conditions: Protocol 2 (holding −100 mV, inactivation step −40 mV 8 s, 0.05 Hz); CHO cells expressing human Nav 1.7; read-out: Nav1.7 IC50
Protocol: as §1, §2, §3, §4, §5, §6, §7, §8, §9, §10

[3] = biological target: T1, human sodium channels Nav 1.8; assay: Automated whole-cell voltage-clamp (ScreenPatch 384P), Nav 1.8 sodium current, Protocol 1; conditions: Protocol 1 (holding −90 mV, 0.1 Hz); CHO cells expressing human Nav 1.8; room temperature; read-out: Nav1.8 IC50
Protocol: as §1, §2, §3, §4, §5, §6, §7, §8, §9, §10

[4] = biological target: T2, human sodium channels Nav 1.7; assay: Automated whole-cell voltage-clamp (ScreenPatch 384P), Nav 1.7 sodium current, Protocol 1; conditions: Protocol 1 (holding −90 mV, 0.1 Hz); CHO cells expressing human Nav 1.7; room temperature; read-out: Nav1.7 IC50
Protocol: as §1, §2, §3, §4, §5, §6, §7, §8, §9, §10

T2 sequence (Q15858 whole entry): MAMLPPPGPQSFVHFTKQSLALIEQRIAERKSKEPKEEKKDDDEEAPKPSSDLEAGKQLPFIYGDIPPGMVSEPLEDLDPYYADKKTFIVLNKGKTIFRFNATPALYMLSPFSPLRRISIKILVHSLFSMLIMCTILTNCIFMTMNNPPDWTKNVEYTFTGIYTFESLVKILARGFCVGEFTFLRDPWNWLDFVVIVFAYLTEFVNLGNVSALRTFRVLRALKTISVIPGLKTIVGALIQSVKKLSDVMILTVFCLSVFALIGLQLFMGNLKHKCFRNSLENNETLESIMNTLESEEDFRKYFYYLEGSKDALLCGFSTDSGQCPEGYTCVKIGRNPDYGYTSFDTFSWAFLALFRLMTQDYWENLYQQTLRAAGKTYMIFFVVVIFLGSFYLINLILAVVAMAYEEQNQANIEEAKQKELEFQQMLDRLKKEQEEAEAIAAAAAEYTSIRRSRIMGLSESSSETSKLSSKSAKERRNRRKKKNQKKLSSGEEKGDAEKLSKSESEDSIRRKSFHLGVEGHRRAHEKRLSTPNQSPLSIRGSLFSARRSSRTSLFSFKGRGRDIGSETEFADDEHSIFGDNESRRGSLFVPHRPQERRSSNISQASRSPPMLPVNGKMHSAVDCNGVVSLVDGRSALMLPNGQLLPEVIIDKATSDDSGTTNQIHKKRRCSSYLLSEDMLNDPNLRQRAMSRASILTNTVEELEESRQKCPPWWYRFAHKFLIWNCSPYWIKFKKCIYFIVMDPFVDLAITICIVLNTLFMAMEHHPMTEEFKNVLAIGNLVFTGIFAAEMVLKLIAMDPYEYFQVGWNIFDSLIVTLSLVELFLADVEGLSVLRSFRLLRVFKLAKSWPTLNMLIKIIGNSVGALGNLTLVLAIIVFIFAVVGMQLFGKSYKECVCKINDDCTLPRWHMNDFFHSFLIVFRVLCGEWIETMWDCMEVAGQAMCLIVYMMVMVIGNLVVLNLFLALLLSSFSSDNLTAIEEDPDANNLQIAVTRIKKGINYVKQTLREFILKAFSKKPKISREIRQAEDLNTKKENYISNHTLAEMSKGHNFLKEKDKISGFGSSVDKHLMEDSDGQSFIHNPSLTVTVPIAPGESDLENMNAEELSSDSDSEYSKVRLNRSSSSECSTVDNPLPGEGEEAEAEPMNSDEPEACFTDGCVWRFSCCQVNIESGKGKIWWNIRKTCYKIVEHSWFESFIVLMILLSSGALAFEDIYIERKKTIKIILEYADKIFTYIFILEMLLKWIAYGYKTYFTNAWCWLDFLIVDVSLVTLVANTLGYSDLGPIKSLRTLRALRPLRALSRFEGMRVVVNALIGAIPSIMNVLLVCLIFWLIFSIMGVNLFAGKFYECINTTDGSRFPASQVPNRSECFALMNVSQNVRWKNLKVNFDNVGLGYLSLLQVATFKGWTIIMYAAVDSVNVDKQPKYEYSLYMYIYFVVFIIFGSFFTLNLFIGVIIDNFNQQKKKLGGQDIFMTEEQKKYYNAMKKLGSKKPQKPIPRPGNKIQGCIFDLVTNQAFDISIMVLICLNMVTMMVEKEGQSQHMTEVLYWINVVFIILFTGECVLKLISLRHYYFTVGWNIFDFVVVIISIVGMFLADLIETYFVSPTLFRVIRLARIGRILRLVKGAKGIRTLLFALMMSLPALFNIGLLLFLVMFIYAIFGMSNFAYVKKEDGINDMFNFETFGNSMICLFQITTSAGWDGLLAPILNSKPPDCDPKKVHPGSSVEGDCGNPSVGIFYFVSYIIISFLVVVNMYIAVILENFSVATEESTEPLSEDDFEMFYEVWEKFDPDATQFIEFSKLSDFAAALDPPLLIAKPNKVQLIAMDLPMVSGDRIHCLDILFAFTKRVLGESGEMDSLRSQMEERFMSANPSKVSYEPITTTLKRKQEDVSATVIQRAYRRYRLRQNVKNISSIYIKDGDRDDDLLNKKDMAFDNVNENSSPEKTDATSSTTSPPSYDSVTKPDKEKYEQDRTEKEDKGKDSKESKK
T1 sequence (Q9Y5Y9 whole entry): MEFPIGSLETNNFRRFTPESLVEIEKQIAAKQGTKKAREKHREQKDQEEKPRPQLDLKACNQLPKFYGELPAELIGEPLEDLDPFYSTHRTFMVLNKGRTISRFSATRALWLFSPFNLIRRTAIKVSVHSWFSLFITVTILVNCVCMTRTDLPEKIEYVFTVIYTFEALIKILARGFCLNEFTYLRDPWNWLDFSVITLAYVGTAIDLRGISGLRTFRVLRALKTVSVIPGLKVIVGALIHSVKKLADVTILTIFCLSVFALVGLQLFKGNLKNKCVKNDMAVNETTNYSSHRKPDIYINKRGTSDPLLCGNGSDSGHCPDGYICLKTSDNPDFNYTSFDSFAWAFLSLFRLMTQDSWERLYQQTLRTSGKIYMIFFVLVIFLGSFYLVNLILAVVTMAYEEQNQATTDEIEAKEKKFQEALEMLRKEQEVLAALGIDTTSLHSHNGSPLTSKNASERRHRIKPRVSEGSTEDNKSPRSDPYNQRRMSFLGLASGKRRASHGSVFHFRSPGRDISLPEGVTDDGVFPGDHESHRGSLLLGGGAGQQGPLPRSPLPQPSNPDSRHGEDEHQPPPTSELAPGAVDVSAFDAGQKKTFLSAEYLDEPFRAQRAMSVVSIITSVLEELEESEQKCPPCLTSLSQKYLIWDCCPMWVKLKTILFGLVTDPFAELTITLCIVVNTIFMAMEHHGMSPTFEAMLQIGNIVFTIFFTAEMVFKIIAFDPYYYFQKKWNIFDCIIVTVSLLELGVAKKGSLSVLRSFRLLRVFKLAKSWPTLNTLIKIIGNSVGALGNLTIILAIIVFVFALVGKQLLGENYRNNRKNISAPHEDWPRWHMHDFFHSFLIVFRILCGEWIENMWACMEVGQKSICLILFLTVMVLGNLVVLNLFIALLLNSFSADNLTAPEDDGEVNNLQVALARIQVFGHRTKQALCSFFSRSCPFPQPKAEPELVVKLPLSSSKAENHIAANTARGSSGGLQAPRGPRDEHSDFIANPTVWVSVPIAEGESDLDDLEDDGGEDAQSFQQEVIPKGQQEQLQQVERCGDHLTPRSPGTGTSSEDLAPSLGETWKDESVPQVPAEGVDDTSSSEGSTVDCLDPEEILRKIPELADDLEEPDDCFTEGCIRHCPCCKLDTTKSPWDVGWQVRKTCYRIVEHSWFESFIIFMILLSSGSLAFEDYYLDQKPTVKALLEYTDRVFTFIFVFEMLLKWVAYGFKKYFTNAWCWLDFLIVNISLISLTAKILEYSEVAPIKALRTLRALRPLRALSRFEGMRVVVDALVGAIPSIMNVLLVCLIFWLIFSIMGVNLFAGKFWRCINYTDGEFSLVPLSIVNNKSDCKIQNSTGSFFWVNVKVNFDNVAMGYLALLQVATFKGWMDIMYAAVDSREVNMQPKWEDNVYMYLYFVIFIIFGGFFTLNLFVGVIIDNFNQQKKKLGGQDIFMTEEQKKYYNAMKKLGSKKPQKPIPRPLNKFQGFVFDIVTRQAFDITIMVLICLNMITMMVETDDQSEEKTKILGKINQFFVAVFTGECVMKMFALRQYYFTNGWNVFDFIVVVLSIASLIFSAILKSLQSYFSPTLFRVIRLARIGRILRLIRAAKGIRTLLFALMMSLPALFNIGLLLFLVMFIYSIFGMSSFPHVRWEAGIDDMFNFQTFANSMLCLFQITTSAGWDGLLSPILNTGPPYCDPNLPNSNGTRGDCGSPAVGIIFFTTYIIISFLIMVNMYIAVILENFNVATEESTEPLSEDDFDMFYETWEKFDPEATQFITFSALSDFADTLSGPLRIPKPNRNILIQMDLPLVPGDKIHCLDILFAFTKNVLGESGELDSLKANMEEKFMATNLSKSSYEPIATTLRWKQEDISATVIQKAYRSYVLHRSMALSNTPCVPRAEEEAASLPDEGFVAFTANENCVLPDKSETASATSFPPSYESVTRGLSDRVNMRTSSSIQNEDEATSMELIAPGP

COc1ccc(-c2cccc(C(=O)N/N=C/c3cc(OC)cc(OC)c3)n2)cc1 [Compound 14, (E)-N′-(3,5-dimethoxybenzylidene)-6-(4-methoxyphenyl) picolinohydrazide]
IC50 [1]: 754 nM | IC50 [2]: 1320 nM

CCCOc1ccc(-c2cccc(C(=O)N/N=C/c3cc(OC)cc(OC)c3)n2)cc1 [Compound 15, (E)-N′-(3,5-dimethoxybenzylidene)-6-(4-propoxyphenyl) picolinohydrazide]
IC50 [1]: 297 nM | IC50 [2]: 272 nM

CCOc1ccc(-c2cccc(C(=O)N/N=C/c3cc(OC)cc(OC)c3)n2)cc1 [Compound 31, (E)-N′-(3,5-dimethoxybenzylidene)-6-(4-ethoxyphenyl) picolinohydrazide]
IC50 [1]: 224 nM | IC50 [2]: 444 nM

CCOc1ccc(-c2cccc(C(=O)N/N=C/c3c(Cl)cccc3Cl)n2)cc1 [Compound 34, (E)-N′-(2,6-dichlorobenzylidene)-6-(4-ethoxyphenyl) picolinohydrazide]
IC50 [3]: > 10 µM | IC50 [4]: > 10 µM

CCOc1ccc(-c2cccc(C(=O)N/N=C/c3c(F)cccc3Cl)n2)cc1 [Compound 35, (E)-N′-(2-chloro-6-fluorobenzylidene)-6-(4-ethoxyphenyl) picolinohydrazide]
IC50 [3]: > 10 µM | IC50 [4]: > 10 µM

CCOc1ccc(-c2cccc(C(=O)N/N=C/c3ccccc3OC)n2)cc1 [Compound 36, (E)-6-(4-ethoxyphenyl)-N′-(2-methoxybenzylidene) picolinohydrazide]
IC50 [3]: 8.43 µM | IC50 [4]: 7.06 µM

CCOc1ccc(-c2cccc(C(=O)N/N=C/c3cccnc3N3CCOCC3)n2)cc1 [Compound 37, (E)-6-(4-ethoxyphenyl)-N′-((2-morpholinopyridin-3-yl)methylene) picolinohydrazide]
IC50 [3]: > 10 µM | IC50 [4]: 8.76 µM

COc1cc(/C=N/NC(=O)c2cc(-c3ccc(Cl)cc3)ccn2)cc(OC)c1 [Compound 42, (E)-4-(4-chlorophenyl)-N′-(3,5-dimethoxybenzylidene) picolinohydrazide]
IC50 [3]: > 10 µM | IC50 [4]: > 10 µM

O=C(N/N=C/c1cccs1)c1cc(-c2ccc(Cl)cc2)ccn1 [Compound 43, (E)-4-(4-chlorophenyl)-N′-(thiophen-2-ylmethylene) picolinohydrazide]
IC50 [3]: > 10 µM | IC50 [4]: > 10 µM

CCOc1ccc(-c2ccnc(C(=O)N/N=C/c3cc(OC)cc(OC)c3)c2)cc1 [Compound 44, (E)-N′-(3,5-dimethoxybenzylidene)-4-(4-ethoxyphenyl) picolinohydrazide]
IC50 [3]: > 10 µM | IC50 [4]: > 10 µM

CCOc1ccc(-c2ccnc(C(=O)N/N=C/c3cccs3)c2)cc1 [Compound 45, (E)-4-(4-ethoxyphenyl)-N′-(thiophen-2-ylmethylene) picolinohydrazide]
IC50 [3]: > 10 µM | IC50 [4]: > 10 µM

COc1cc(/C=N/NC(=O)c2cc(-c3ccc(OC(C)C)cc3)ccn2)cc(OC)c1 [Compound 46, (E)-N′-(3,5-dimethoxybenzylidene)-4-(4-isopropoxyphenyl) picolinohydrazide]
IC50 [3]: > 10 µM | IC50 [4]: > 10 µM

CC(C)Oc1ccc(-c2ccnc(C(=O)N/N=C/c3cccs3)c2)cc1 [Compound 47, (E)-4-(4-isopropoxyphenyl)-N′-(thiophen-2-ylmethylene) picolinohydrazide]
IC50 [3]: > 10 µM | IC50 [4]: > 10 µM

COc1cc(/C=N/NC(=O)c2cc(-c3ccc(OC4CCCC4)cc3)ccn2)cc(OC)c1 [Compound 48, (E)-4-(4-(cyclopentyloxy)phenyl)-N′-(3,5-dimethoxybenzylidene) picolinohydrazide]
IC50 [3]: > 10 µM | IC50 [4]: > 10 µM

COc1cc(/C=N/NC(=O)c2cc(-c3ccc(OC(F)(F)F)cc3)ccn2)cc(OC)c1 [Compound 49, (E)-N′-(3,5-dimethoxybenzylidene)-4-(4-(trifluoromethoxy)phenyl) picolinohydrazide]
IC50 [3]: > 10 µM | IC50 [4]: > 10 µM

O=C(N/N=C/c1cccs1)c1cc(-c2ccc(OC3CCCC3)cc2)ccn1 [Compound 50, (E)-4-(4-(cyclopentyloxy)phenyl)-N′-(thiophen-2-ylmethylene) picolinohydrazide]
IC50 [3]: > 10 µM | IC50 [4]: > 10 µM

O=C(N/N=C/c1cccs1)c1cc(-c2ccc(OC(F)(F)F)cc2)ccn1 [Compound 51, (E)-N′-(thiophen-2-ylmethylene)-4-(4-(trifluoromethoxy)phenyl) picolinohydrazide]
IC50 [3]: > 10 µM | IC50 [4]: > 10 µM

COc1cc(/C=N/NC(=O)c2ccnc(-c3ccc(Cl)cc3)n2)cc(OC)c1 [Compound 52, (E)-2-(4-chlorophenyl)-N′-(3,5-dimethoxybenzylidene)pyrimidine-4-carbohydrazide]
IC50 [3]: > 10 µM | IC50 [4]: > 10 µM

CCOc1ccc(-c2nccc(C(=O)N/N=C/c3cc(OC)cc(OC)c3)n2)cc1 [Compound 53, (E)-N′-(3,5-dimethoxybenzylidene)-2-(4-ethoxyphenyl)pyrimidine-4-carbohydrazide]
IC50 [3]: > 10 µM | IC50 [4]: > 10 µM

COc1cc(/C=N/NC(=O)c2ccnc(-c3ccc(OC4CCCC4)cc3)n2)cc(OC)c1 [Compound 55, (E)-2-(4-(cyclopentyloxy)phenyl)-N′-(3,5-dimethoxybenzylidene)pyrimidine-4-carbohydrazide]
IC50 [3]: > 10 µM | IC50 [4]: > 10 µM

COc1cc(/C=N/NC(=O)c2ccnc(-c3ccc(OC(F)(F)F)cc3)n2)cc(OC)c1 [Compound 56, (E)-N′-(3,5-dimethoxybenzylidene)-2-(4-(trifluoromethoxy)phenyl) pyrimidine-4-carbohydrazide]
IC50 [3]: > 10 µM | IC50 [4]: > 10 µM

COc1ccc(-c2nccc(C(=O)N/N=C/c3cc(OC)cc(OC)c3)n2)cc1 [Compound 57, (E)-N′-(3,5-dimethoxybenzylidene)-2-(4-methoxyphenyl)pyrimidine-4-carbohydrazide]
IC50 [3]: > 10 µM | IC50 [4]: > 10 µM

CCCOc1ccc(-c2nccc(C(=O)N/N=C/c3cc(OC)cc(OC)c3)n2)cc1 [Compound 58, (E)-N′-(3,5-dimethoxybenzylidene)-2-(4-propoxyphenyl)pyrimidine-4-carbohydrazide]
IC50 [3]: > 10 µM | IC50 [4]: > 10 µM

CCCCOc1ccc(-c2nccc(C(=O)N/N=C/c3cc(OC)cc(OC)c3)n2)cc1 [Compound 59, (E)-2-(4-butoxyphenyl)-N′-(3,5-dimethoxybenzylidene)pyrimidine-4-carbohydrazide]
IC50 [3]: > 10 µM | IC50 [4]: > 10 µM

CCCCOc1ccc(-c2ccnc(C(=O)N/N=C/c3cc(OC)cc(OC)c3)n2)cc1 [Compound 67, (E)-4-(4-butoxyphenyl)-N′-(3,5-dimethoxybenzylidene)pyrimidine-2-carbohydrazide]
IC50 [3]: > 10 µM | IC50 [4]: > 10 µM

COc1cc(/C=N/N(C)C(=O)c2ccc(-c3ccc(Cl)cc3)o2)cc(OC)c1 [Compound 78, (E)-5-(4-chlorophenyl)-N′-(3,5-dimethoxybenzylidene)-N′-methylfuran-2-carbohydrazide]
IC50 [3]: > 30 µM | IC50 [4]: > 30 µM

CCOc1ccc(-c2cccc(C(=O)N(C)/N=C/c3cc(OC)cc(OC)c3)n2)cc1 [Compound 79, (E)-N′-(3,5-dimethoxybenzylidene)-6-(4-ethoxyphenyl)-N′-methylpicolinohydrazide]
IC50 [3]: > 10 µM | IC50 [4]: > 10 µM
